Measured values from patent US20250101436A1, “APTAMERS AND SMALL MOLECULE LIGANDS” (MeiraGTx UK II Limited, priority 2021, published 2025).

Tested on: luciferase gene expression in HEK 293 cells in response to Comp. 004
Experiment: Screen of riboswitch constructs with 12C6-1 variant aptamers (libraries N1-N5) against Comp. 004, luciferase in HEK 293 cells
Format: cell-based, human
Outline: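 Riboswitch constructs carrying 12C6-1 aptamer variants, randomized in J2-4, J2-3/J3-3a/J3a-2/P3, L3a, J4-5/J5-4/P4 or L5 regions (libraries N1-N5), cloned into an intron-exon-intron cassette driving luciferase. Screened in HEK 293 cells with 25 µM Comp. 004; read-out is fold induction of gene expression versus parent Luci-12C6-1.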

[1] = library N2 variant aptamers (J2-3, P3-J3-3a, J3a-2 randomized) of 12C6-1 in riboswitch constructs, in response to Comp. 004, HEK 293 cells
[2] = library N1 (J2-4), HEK 293, 25 M [sic] Comp. 004
[3] = library N5 variant aptamers (L5, X16-X21 randomized) of 12C6-1 in riboswitch constructs, in response to Comp. 004 treatment, HEK 293 cells

| Substance | Fold (induction of luciferase gene expression) [3] | other results |
| --- | --- | --- |
| N2_2F3 (DNA CTGGGGAGTCCTTCATGC; chemistry not given here) |  | Fold (induction of luciferase gene expression) [1]: 0.9 fold |
| N1_2G10 (CTGGGGAGTCCTTCATGCGGGGC; chemistry not given here) |  | Fold (induction of luciferase gene expression) [2]: 4.40 fold |
| N5_1E10 (CTGGGGAGTCCT; chemistry not given here) | 1026.1 fold |  |
| N5_13C10 (CTGGGGAGTCCT; chemistry not given here) | 1144.6 fold |  |
| N5_6F4 (CTGGGGAGTCCT; chemistry not given here) | 1226.6 fold |  |
| N1_2E11 (CTGGGGAGTCCTTCATGCGGGGC; chemistry not given here) |  | Fold (induction of luciferase gene expression) [2]: 15.45 fold |
| N1_2F3 (CTGGGGAGTCCTTCATGCGGGGC; chemistry not given here) |  | Fold (induction of luciferase gene expression) [2]: 15.56 fold |
| N5_6A3 (CTGGGGAGTCCT; chemistry not given here) | 696.0 fold |  |
| N1_2G1 (CTGGGGAGTCCTTCATGCGGGGC; chemistry not given here) |  | Fold (induction of luciferase gene expression) [2]: 100.11 fold |
| N1_2G9 (CTGGGGAGTCCTTCATGCGGGGC; chemistry not given here) |  | Fold (induction of luciferase gene expression) [2]: 30.93 fold |
| N2_2A5 (CTGGGGAGTCCTTCATGC; chemistry not given here) |  | Fold (induction of luciferase gene expression) [1]: 1.0 fold |
| N2_2C10 (CTGGGGAGTCCTTCATGC; chemistry not given here) |  | Fold (induction of luciferase gene expression) [1]: 1.2 fold |
| N5_7F3 (DNA CTGGGGAGTCCT; chemistry not given here) | 1139.0 fold |  |
| N2_2A9 (CTGGGGAGTCCTTCATGC; chemistry not given here) |  | Fold (induction of luciferase gene expression) [1]: 1.1 fold |
| N5_7F8 (DNA CTGGGGAGTCCT; chemistry not given here) | 1279.7 fold |  |
| N5_1D8 (CTGGGGAGTCCT; chemistry not given here) | 383.5 fold |  |
| N5_7D2 (DNA CTGGGGAGTCCT; chemistry not given here) | 1114.3 fold |  |
| N5_7G3 (DNA CTGGGGAGTCCT; chemistry not given here) | 799.3 fold |  |
| N5_3A3 (CTGGGGAGTCCT; chemistry not given here) | 1066.3 fold |  |
| N5_1D6 (CTGGGGAGTCCT; chemistry not given here) | 684.9 fold |  |

| Substance | Fold (induction of luciferase gene expression) [3] | other results |
| --- | --- | --- |
| N5_2D8 (CTGGGGAGTCCT; chemistry not given here) | 1047.3 fold |  |
| N2_2D10 (DNA CTGGGGAGTCCTTCATGC; chemistry not given here) |  | Fold (induction of luciferase gene expression) [1]: 1.2 fold |
| N5_1F10 (CTGGGGAGTCCT; chemistry not given here) | 1071.3 fold |  |
| N5_7F1 (DNA CTGGGGAGTCCT; chemistry not given here) | 1744.2 fold |  |
| N2_2C2 (CTGGGGAGTCCTTCATGC; chemistry not given here) |  | Fold (induction of luciferase gene expression) [1]: 0.8 fold |
| N5_14G11 (CTGGGGAGTCCT; chemistry not given here) | 1775.3 fold |  |
| N5_2F12 (CTGGGGAGTCCT; chemistry not given here) | 1100.0 fold |  |
| N5_7H3 (DNA CTGGGGAGTCCT; chemistry not given here) | 360.5 fold |  |
| N2_2D7 (DNA CTGGGGAGTCCTTCATGC; chemistry not given here) |  | Fold (induction of luciferase gene expression) [1]: 1.0 fold |
| N5_3F11 (CTGGGGAGTCCT; chemistry not given here) | 1628.3 fold |  |
| N2_2B3 (CTGGGGAGTCCTTCATGC; chemistry not given here) |  | Fold (induction of luciferase gene expression) [1]: 1.2 fold |
| N5_1H8 (CTGGGGAGTCCT; chemistry not given here) | 622.6 fold |  |
| N2_2A12 (CTGGGGAGTCCTTCATGC; chemistry not given here) |  | Fold (induction of luciferase gene expression) [1]: 1.1 fold |
| N5_5B6 (CTGGGGAGTCCT; chemistry not given here) | 1068.3 fold |  |
| N5_6F6 (CTGGGGAGTCCT; chemistry not given here) | 953.0 fold |  |
| N5_7B8 (CTGGGGAGTCCT; chemistry not given here) | 693.7 fold |  |
| N5_7E5 (DNA CTGGGGAGTCCT; chemistry not given here) | 867.4 fold |  |
| N1_2D11 (CTGGGGAGTCCTTCATGCGGGGC; chemistry not given here) |  | Fold (induction of luciferase gene expression) [2]: 1.96 fold |
| N2_2E6 (DNA CTGGGGAGTCCTTCATGC; chemistry not given here) |  | Fold (induction of luciferase gene expression) [1]: 0.9 fold |
| N2_2H6 (CTGGGGAGTCCTTCATGC; chemistry not given here) |  | Fold (induction of luciferase gene expression) [1]: 1.0 fold |

| Substance | Fold (induction of luciferase gene expression) [3] | other results |
| --- | --- | --- |
| N2_2C7 (CTGGGGAGTCCTTCATGC; chemistry not given here) |  | Fold (induction of luciferase gene expression) [1]: 0.8 fold |
| N5_1F1 (CTGGGGAGTCCT; chemistry not given here) | 557.2 fold |  |
| N1_2G3 (CTGGGGAGTCCTTCATGCGGGGC; chemistry not given here) |  | Fold (induction of luciferase gene expression) [2]: 36.58 fold |
| N5_1D2 (CTGGGGAGTCCT; chemistry not given here) | 561.3 fold |  |
| N5_1G5 (CTGGGGAGTCCT; chemistry not given here) | 804.6 fold |  |
| N5_7C7 (DNA CTGGGGAGTCCT; chemistry not given here) | 489.1 fold |  |
| N1_2F10 (CTGGGGAGTCCTTCATGCGGGGC; chemistry not given here) |  | Fold (induction of luciferase gene expression) [2]: 10.84 fold |
| N5_2G5 (CTGGGGAGTCCT; chemistry not given here) | 715.9 fold |  |
| N5_6A6 (CTGGGGAGTCCT; chemistry not given here) | 1024.4 fold |  |
| N5_7G8 (DNA CTGGGGAGTCCT; chemistry not given here) | 775.6 fold |  |
| N5_2E6 (CTGGGGAGTCCT; chemistry not given here) | 685.6 fold |  |
| N5_7D6 (DNA CTGGGGAGTCCT; chemistry not given here) | 1210.5 fold |  |
| N5_4D7 (CTGGGGAGTCCT; chemistry not given here) | 588.1 fold |  |
| N1_2F6 (CTGGGGAGTCCTTCATGCGGGGC; chemistry not given here) |  | Fold (induction of luciferase gene expression) [2]: 185.92 fold |
| N1_2E10 (CTGGGGAGTCCTTCATGCGGGGC; chemistry not given here) |  | Fold (induction of luciferase gene expression) [2]: 2.86 fold |
| N5_2B5 (CTGGGGAGTCCT; chemistry not given here) | 1107.3 fold |  |
| N2_2F2 (DNA CTGGGGAGTCCTTCATGC; chemistry not given here) |  | Fold (induction of luciferase gene expression) [1]: 1.0 fold |
| N5_6D12 (CTGGGGAGTCCT; chemistry not given here) | 2318.1 fold |  |
